Reference: patent US7550485B2, “Substituted N-heterocycle derivatives and methods of their use” (Wyeth, priority 2003, dated 2009)
Structures can show the parent of a compound that is named as a salt.

Target: T1, hNET (Homo sapiens, UniProt P23975)
T1 construct: expressed in transfected cells
Assay: Norepinephrine (NE) uptake assay in MDCK-Net6 cells stably transfected with human hNET
Type: cell-based
Details: [3H]NE uptake; for inhibition at 1 µM: MDCK-Net6, 1 μM test compound
Description: MDCK-Net6 cells, stably transfected with human hNET (Pacholczyk, T., R. D. Blakely, and S. G. Amara, Nature, 1991, 350(6316): p. 350-4) were cultured in growth medium containing high glucose DMEM (Gibco, Cat. No. 11995), 10% FBS (dialyzed, heat-inactivated, US Bio-Technologies, Lot FBD1129HI) and 500 μg/ml G418 (Gibco, Cat. No. 10131). Cells were plated at 300,000/T75 flask and cells were split twice weekly. The JAR cell line (human placental choriocarcinoma) was purchased from ATCC (Cat. No. HTB-144). The cells were cultured in growth medium containing RPMI 1640 (Gibco, Cat. No. 72400), 10% FBS (Irvine, Cat. No. 3000), 1% sodium pyruvate (Gibco, Cat. No. 1136) and 0.25% glucose. Cells were plated at 250,000 cells/T75 flask and split twice weekly. For all assays, cells were plated in Wallac 96-well sterile plates (PerkinElmer, Cat. No. 3983498).
Norepinephrine (NE) Uptake Assay
On day 1, cells were plated at 3,000 cells/well in growth medium and maintained in a cell incubator (37° C., 5% CO2). On day 2, growth medium was replaced with 200 μl of assay buffer (25 mM HEPES; 120 mM NaCl; 5 mM KCl; 2.5 mM CaCl2; 1.2 mM MgSO4; 2 mg/ml glucose (pH 7.4, 37° C.)) containing 0.2 mg/ml ascorbic acid and 10 μM pargyline. Plates containing cells with […] of assay buffer were equilibrated for 10 minutes at 37° C. prior to addition of compounds. A stock solution of desipramine was prepared in DMSO (10 mM) and delivered to triplicate wells containing cells for a final test concentration of 1 μM. Data from these wells were used to define non-specific NE uptake (minimum NE uptake). Test compounds were prepared in DMSO (10 mM) and diluted in assay buffer according to test range (1 to 10,000 nM). Twenty-five microliters of assay buffer (maximum NE uptake) or test compound were added directly to triplicate wells containing cells in 200 μl of assay buffer. The cells in assay buffer with test compounds were incubated for 20 minutes at 37° C. To initiate the NE uptake, [^3H]NE diluted in assay buffer (120 nM final assay concentration) was delivered in 25 μl aliquots to each well and the plates were incubated for 5 minutes (37° C.). The reaction was terminated by decanting the supernatant from the plate. The plates containing cells were washed twice with 200 μl assay buffer (37° C.) to remove free radioligand. The plates were then inverted, left to dry for 2 minutes, then reinverted and air-dried for an additional 10 minutes. The cells were lysed in 25 μl of 0.25 N NaOH solution (4° C.), placed on a shake table and vigorously shaken for 5 minutes. After cell lysis, 75 μl of scintillation cocktail was added to each well and the plates were sealed with film tape. The plates were returned to the shake table and vigorously shaken for a minimum of 10 minutes to ensure adequate partitioning of organic and aqueous solutions. The plates were counted in a Wallac Microbeta counter (PerkinElmer) to collect the raw cpm data.
For each experiment, a data stream of cpm values collected from the Wallac Microbeta counter was downloaded to a Microsoft Excel statistical application program. Calculations of EC50 values were made using the transformed-both-sides logistic dose response program written by Wyeth Biometrics Department. The statistical program uses mean cpm values from wells representing maximum binding or uptake (assay buffer) and mean cpm values from wells representing minimum binding or uptake ((1 μM desipramine (hNET) or 1 μM paroxetine (hSERT)). Estimation of the EC50 value was completed on a log scale and the line was fit between the maximum and minimum binding or uptake values. All graphic data representation was generated by normalizing each data point to a mean percent based on the maximum and minimum binding or uptake values. The EC50 values reported from multiple experiments were calculated by pooling the raw data from each experiment and analyzing the pooled data as one experiment.

T1 sequence (P23975 whole entry): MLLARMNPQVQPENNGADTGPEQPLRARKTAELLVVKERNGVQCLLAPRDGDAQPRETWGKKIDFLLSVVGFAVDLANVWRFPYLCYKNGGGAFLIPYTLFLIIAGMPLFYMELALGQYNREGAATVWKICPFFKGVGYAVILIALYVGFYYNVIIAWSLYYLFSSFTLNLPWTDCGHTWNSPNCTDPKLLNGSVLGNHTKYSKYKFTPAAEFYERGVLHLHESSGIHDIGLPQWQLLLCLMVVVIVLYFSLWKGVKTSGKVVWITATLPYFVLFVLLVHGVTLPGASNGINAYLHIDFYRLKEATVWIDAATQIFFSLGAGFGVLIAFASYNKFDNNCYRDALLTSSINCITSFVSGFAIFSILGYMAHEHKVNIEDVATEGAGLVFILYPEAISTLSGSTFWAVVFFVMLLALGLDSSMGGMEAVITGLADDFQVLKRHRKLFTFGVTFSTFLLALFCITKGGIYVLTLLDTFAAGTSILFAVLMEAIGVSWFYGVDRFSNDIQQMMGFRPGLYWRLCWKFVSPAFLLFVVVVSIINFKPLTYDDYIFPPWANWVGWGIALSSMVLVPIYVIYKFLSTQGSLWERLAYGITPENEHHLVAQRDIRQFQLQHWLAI

Question: For `CN[C@H]1CCCN(CC(c2ccc(OCc3ccccc3)c(Cl)c2)C2(O)CCCCC2)C1` (stereo partly drawn) [Example 195, 1-{1-[4-(benzyloxy)-3-chlorophenyl]-2-[(3S)-3-(methylamino)piperidin-1-yl]ethyl}cyclohexanol dihydrochloride], which inhibition at 1 µM is on record?
Answer: 92%

Question: Which inhibition at 1 µM does the source give for `N[C@H]1CCCN(CC(c2ccc(OCc3ccccc3)c(Cl)c2)C2(O)CCCCC2)C1` (stereo partly drawn) [Example 196, 1-{2-[(3S)-3-aminopiperidin-1-yl]-1-[4-(benzyloxy)-3-chlorophenyl]ethyl}cyclohexanol dihydrochloride] here?
Answer: 92.2%

Question: How did the inhibition at 1 µM turn out when `CN(C)[C@H]1CCCN(CC(c2ccc(OCc3ccccc3)c(Cl)c2)C2(O)CCCCC2)C1` (stereo partly drawn) [Example 197, 1-{1-[4-(benzyloxy)-3-chlorophenyl]-2-[(3S)-3-(dimethylamino)piperidin-1-yl]ethyl}cyclohexanol dihydrochloride] was run?
Answer: 76%

Question: How did the inhibition at 1 µM turn out when `CN[C@H]1CCN(CC(c2cccc(Cl)c2)C2(O)CCCCC2)C1` (stereo partly drawn) [Example 198, 1-1-{1-(3-chlorophenyl)-2-[(3S)-3-(methylamino)pyrrolidin-1-yl]ethyl}cyclohexanol dihydrochloride] was run?
Answer: 77.8%

Question: Which inhibition at 1 µM does the source give for `CN(C)[C@H]1CCN(CC(c2cccc(Cl)c2)C2(O)CCCCC2)C1` (stereo partly drawn) [Example 199, 1-{1-(3-chlorophenyl)-2-[(3S)-3-(dimethylamino)pyrrolidin-1-yl]ethyl}cyclohexanol dihydrochloride] here?
Answer: 80.7%

Question: With `CN[C@@H]1CCN(CC(c2cccc(Cl)c2)C2(O)CCCCC2)C1` (stereo partly drawn) [Example 200, 1-{1-(3-chlorophenyl)-2-[(3R)-3-(methylamino)pyrrolidin-1-yl]ethyl}cyclohexanol dihydrochloride] as the molecule, how does the inhibition at 1 µM read?
Answer: 54.1%

Question: For `N[C@@H]1CCN(CC(c2cccc(Cl)c2)C2(O)CCCCC2)C1` (stereo partly drawn) [Example 201, 1-[2-[(3R)-3-aminopyrrolidin-1-yl]-1-(3-chlorophenyl)ethyl]cyclohexanol dihydrochloride], which inhibition at 1 µM is on record?
Answer: 37.5%

Question: With `CN(C)[C@@H]1CCN(CC(c2cccc(Cl)c2)C2(O)CCCCC2)C1` (stereo partly drawn) [Example 202, 1-{1-(3-chlorophenyl)-2-[(3R)-3-(dimethylamino)pyrrolidin-1-yl]ethyl}cyclohexanol dihydrochloride] as the molecule, how does the inhibition at 1 µM read?
Answer: 74.3%

Question: How did the inhibition at 1 µM turn out when `CN[C@H]1CCN(CC(c2ccc3ccccc3c2)C2(O)CCCCC2)C1` (stereo partly drawn) [Example 203, 1-[2-[(3S)-3-(methylamino)pyrrolidin-1-yl]-1-(2-naphthyl)ethyl]cyclohexanol dihydrochloride] was run?
Answer: 59.2%

Question: How did the inhibition at 1 µM turn out when `N[C@H]1CCN(CC(c2ccc3ccccc3c2)C2(O)CCCCC2)C1` (stereo partly drawn) [Example 204, 1-[2-[(3S)-3-aminopyrrolidin-1-yl]-1-(2-naphthyl)ethyl]cyclohexanol dihydrochloride] was run?
Answer: 70.4%

Question: How did the inhibition at 1 µM turn out when `CN(C)[C@H]1CCN(CC(c2ccc3ccccc3c2)C2(O)CCCCC2)C1` (stereo partly drawn) [Example 205, 1-[2-[(3S)-3-(dimethylamino)pyrrolidin-1-yl]-1-(2-naphthyl)ethyl]cyclohexanol dihydrochloride] was run?
Answer: 39.5%

Question: `CN[C@H]1CCN(CC(c2cccc3ccccc23)C2(O)CCCCC2)C1` (stereo partly drawn) [Example 206, 1-[2-[(3S)-3-(methylamino)pyrrolidin-1-yl]-1-(1-naphthyl)ethyl]cyclohexanol dihydrochloride] was tested. Which inhibition at 1 µM did it give?
Answer: 19.2%

Question: How did the inhibition at 1 µM turn out when `N[C@H]1CCN(CC(c2cccc3ccccc23)C2(O)CCCCC2)C1` (stereo partly drawn) [Example 207, 1-[2-[(3S)-3-aminopyrrolidin-1-yl]-1-(1-naphthyl)ethyl]cyclohexanol dihydrochloride] was run?
Answer: 65.7%

Question: With `CN[C@H]1CCN(CC(c2ccc(OCc3ccccc3)c(Cl)c2)C2(O)CCCCC2)C1` (stereo partly drawn) [Example 209, 1-{1-[4-(benzyloxy)-3-chlorophenyl]-2-[(3S)-3-(methylamino)pyrrolidin-1-yl]ethyl}cyclohexanol dihydrochloride] as the molecule, how does the inhibition at 1 µM read?
Answer: 98.5%

Question: For `N[C@H]1CCN(CC(c2ccc(OCc3ccccc3)c(Cl)c2)C2(O)CCCCC2)C1` (stereo partly drawn) [Example 210, 1-{2-[(3S)-3-aminopyrrolidin-1-yl]-1-[4-(benzyloxy)-3-chlorophenyl]ethyl}cyclohexanol dihydrochloride], which inhibition at 1 µM is on record?
Answer: 88.8%

Question: How did the inhibition at 1 µM turn out when `CN(C)[C@H]1CCN(CC(c2ccc(OCc3ccccc3)c(Cl)c2)C2(O)CCCCC2)C1` (stereo partly drawn) [Example 211, 1-{1-[4-(benzyloxy)-3-chlorophenyl]-2-[(3S)-3-(dimethylamino)pyrrolidin-1-yl]ethyl}cyclohexanol dihydrochloride] was run?
Answer: 95.6%

Question: How did the inhibition at 1 µM turn out when `CN[C@H]1CCN(CC(c2ccc(OCc3ccccc3)cc2)C2(O)CCCCC2)C1` (stereo partly drawn) [Example 212, 1-{1-[4-(benzyloxy)phenyl]-2-[(3S)-3-(methylamino)pyrrolidin-1-yl]ethyl}cyclohexanol dihydrochloride] was run?
Answer: 84.8%

Question: With `N[C@H]1CCN(CC(c2ccc(OCc3ccccc3)cc2)C2(O)CCCCC2)C1` (stereo partly drawn) [Example 213, 1-{2-[(3S)-3-aminopyrrolidin-1-yl]-1-[4 (benzyloxy)phenyl]ethyl}cyclohexanol dihydrochloride] as the molecule, how does the inhibition at 1 µM read?
Answer: 84.5%

Question: For `CN(C)[C@H]1CCN(CC(c2ccc(OCc3ccccc3)cc2)C2(O)CCCCC2)C1` (stereo partly drawn) [Example 214, 1-{1-[4-(benzyloxy)phenyl]-2-[(3S)-3-(dimethylamino)pyrrolidin-1-yl]ethyl}cyclohexanol dihydrochloride], which inhibition at 1 µM is on record?
Answer: 65%

Question: `CN[C@H]1CCN(CC(c2cccc(OC(F)(F)F)c2)C2(O)CCCCC2)C1` (stereo partly drawn) [Example 215, 1-{2-[(3S)-3-(methylamino)pyrrolidin-1-yl]-1-[3-(trifluoromethoxy)phenyl]ethyl}cyclohexanol dihydrochloride] was tested. Which inhibition at 1 µM did it give?
Answer: 30.2%

Question: Which inhibition at 1 µM does the source give for `N[C@H]1CCN(CC(c2cccc(OC(F)(F)F)c2)C2(O)CCCCC2)C1` (stereo partly drawn) [Example 216, 1-{2-[(3S)-3-aminopyrrolidin-1-yl]-1-[3-(trifluoromethoxy)phenyl]ethyl}cyclohexanol dihydrochloride] here?
Answer: 38.9%

Question: How did the inhibition at 10 µM (MDCK-Net6, 10 μM test compound (stated in cell)) turn out when `CN(C)[C@H]1CCN(CC(c2cccc(OC(F)(F)F)c2)C2(O)CCCCC2)C1` (stereo partly drawn) [Example 217, 1-{2-[(3S)-3-(dimethylamino)pyrrolidin-1-yl]-1-[3-(trifluoromethoxy)phenyl]ethyl}cyclohexanol dihydrochloride] was run?
Answer: 84.2%

Question: For `CN[C@@H]1CCN(CC(c2cccc(OC(F)(F)F)c2)C2(O)CCCCC2)C1` (stereo partly drawn) [Example 218, 1-{2-[(3R)-3-(methylamino)pyrrolidin-1-yl]-1-[3-(trifluoromethoxy)phenyl]ethyl}cyclohexanol dihydrochloride], which inhibition at 1 µM is on record?
Answer: 42%

Question: Which inhibition at 1 µM does the source give for `CN(C)[C@@H]1CCN(CC(c2cccc(OC(F)(F)F)c2)C2(O)CCCCC2)C1` (stereo partly drawn) [Example 219, 1-{2-[(3R)-3-(dimethylamino)pyrrolidin-1-yl]-1-[3-(trifluoromethoxy)phenyl]ethyl}cyclohexanol dihydrochloride] here?
Answer: 53.1%

Question: `CN[C@H]1CCN(CC(c2cccc(C(F)(F)F)c2)C2(O)CCCCC2)C1` (stereo partly drawn) [Example 220, 1-{2-[(3S)-3-(methylamino)pyrrolidin-1-yl]-1-[3-(trifluoromethyl)phenyl]ethyl}cyclohexanol dihydrochloride] was tested. Which inhibition at 1 µM did it give?
Answer: 27.3%

Question: For `N[C@H]1CCN(CC(c2cccc(C(F)(F)F)c2)C2(O)CCCCC2)C1` (stereo partly drawn) [Example 221, 1-{2-[(3S)-3-aminopyrrolidin-1-yl]-1-[3-(trifluoromethyl)phenyl]ethyl}cyclohexanol dihydrochloride], which inhibition at 1 µM is on record?
Answer: 63.9%
